Laboratory results published in patent publication US11278549B2, “Method of treating obesity” (McMaster University, priority 2013, dated 2022).

Legend:
5-HT receptor = assay: Isoproterenol-induced lipolysis (FFA release) in immortalized BAT cells; format: cell-based, mouse; conditions: 5-HT at 100 μM, n=2
Experimental: Briefly, confluent cells were placed in induction media (0.5 mM IBMX; 0.25 mM indomethacin; 2 μg/ml dexamethasone; 1 nM T3, 20 nM insulin) for two days and subsequently maintained on differentiation media (1 nM T3, 20 nM insulin). All experiments were performed on cultures 6-8 days post-induction. Unless otherwise indicated, cells were rinsed with PBS and media was changed to HEPES-buffered Krebs Ringer buffer (HKRB)+1% BSA. Where indicated, BAs were treated with serotonin for 30 min (100 μM; Sigma) followed by isoproterenol (1 nM, Sigma) for 4 h. The serotonin receptor antagonist, methysergide (3 μM) was used 45 min prior treatment with serotonin as above.

5-HT2A = biological target: T1, 5-HT2A (Mus musculus, UniProt P35363); assay: Fluo-4 Ca2+ signals in brown adipocytes; format: cell-based
T1 construct: endogenous in cells; host or cells: immortalized murine brown adipocytes (differentiated)
Text: Immortalized BA progenitor cells obtained from 5-HT2A KO (B6; 129-5-HT2Atm1a/Nju from Nanjing Biomedical Research Institute of Nanjing University) mice were differentiated for 9 days to produce mature BAs. Cells were then stained with fluo-4 and treated with different concentrations of 5-HT to obtain a dose response curve. Values from BAs expressing 5-HT2A used for other experiments were plotted as a WT comparison.

BAT cells = assay: Serotonin on isoproterenol-stimulated cAMP and thermogenic program in BAT cells; format: cell-based, mouse; conditions: serotonin prior to isoproterenol
Experimental: To examine whether serotonin could alter cAMP and the induction of the thermogenic program in a cell autonomous manner, BAT cells were treated with the concentrations of serotonin observed in the BAT of Tph1^+/+ mice fed a HFD (FIG. 9b) prior to stimulation with isoproterenol ([…]). Serotonin treatment attenuated isoproterenol-stimulated cAMP and phosphorylation of protein kinase A substrates such as hormone sensitive lipase (HSL […]-FIG. 9c) and importantly also blunted the induction of the thermogenic gene program (FIG. 9d-f). […] Cell Culture. An immortalized brown adipocyte (BA) cell line derived from mouse fetal brown fat (as described in Uldry et al., Cell metabolism, 3 (2006) 333-341) was cultured and differentiated as previously described in Mottillo, Journal of Biological Chemistry, 287 (2012) 25038-25048. Briefly, confluent cells were placed in induction media (0.5 mM IBMX; 0.25 mM indomethacin; 2 μg/ml dexamethasone; 1 nM T3, 20 nM insulin) for two days and subsequently maintained on differentiation media (1 nM T3, 20 nM insulin). All experiments were performed on cultures 6-8 days post-induction. Unless otherwise indicated, cells were rinsed with PBS and media was changed to HEPES-buffered Krebs Ringer buffer (HKRB)+1% BSA. Where indicated, BAs were treated with serotonin for 30 min (100 μM; Sigma) followed by isoproterenol (1 nM, Sigma) for 4 h. […] cAMP measurements. cAMP levels were measured in BA stimulated for 10 min with isoproterenol (1 nM). […] The cAMP levels were quantified by ELISA (Biomedical Technologies Inc.) as previously described (Mottillo et al., American Journal of Physiology-Endocrinology And Metabolism, 301 (2011) […]-[…]). […] The expression pattern of various genes was quantified by qRT-PCR analysis, as previously described (Mottillo et al., American journal of physiology, 293 (2007) […]-1197). […] 25 ng of cDNA was analyzed in a 10 μl quantitative PCR reaction (Amplitaq Gold) as previously described. […] The extracts were recovered and proteins were quantified by using the bicinchoninic acid method (Pierce). […]

UCP1 = assay: Ucp1 promoter activity, Ucp1 mRNA and UCP1 protein in brown adipocytes; format: cell-based, mouse
Experimental: Using RNA-Seq, cultured human brown and beige adipocytes were interrogated for 5-HT receptor mRNA expression. Immortalized murine brown adipocytes (BAs) were treated with or without the selective 5-HT reuptake inhibitor (SSRI), paroxetine (250 nM). Subsequent studies were conducted with and without 5-HT2A agonists (1 pM-10 uM TCB-2, 1 pM-10 uM AL-34662, and 1 pM-10 uM NBOH-2C-CN) and 5-HT2A antagonists (100 fM-100 pM MDL-100907, 100 pM-10 uM xylamidine tosylate, 1 nM ketanserin, 10 nM altanserin, 100 fM-100 pM EMD-281,014, and 100 pM-10 uM sarpogrelate hydrochloride).
BA progenitors were isolated and immortalized from WT and serotonin transporter (SERT; Gene: Slc6a4) KO mice. These cells were then differentiated for 7 days to obtain mature BAs. BAs were then treated with different doses of 5-HT for 4 hours. RNA was isolated and quantified using RT-qPCR with probes specific for Slc6a4, Ucp1 and PPIA.
BA progenitors were isolated from mice expressing a transgene where the luciferase gene is driven by the Ucp1 promoter (i.e. Ucp1-Luc2 mice; a.k.a. ThermoMouse; Jackson Laboratories). Upon 9 days of differentiation, these BAs were treated for 4 hours with different doses of 5-HT. Because in vitro there is not a continuous supply of 5-HT as there is in vivo, cells were treated with paroxetine to inhibit the uptake and consequent degradation of 5-HT, and to observe 5-HT receptor specific effects. These cells were then lysed, incubated with a luciferin assay cocktail, and the light generated quantified on a microplate reader.

brown adipose tissue = assay: Acute 5-HT with or without xylamidine pretreatment: BAT activity in vivo; set-up: species or system mice
Experimental: Mice housed at 30° C. were injected with xylamidine (3 mg/kg, −2 hour), 5-HT (5 mg/kg, −1 hour) and/or CL-316,243 (1 mg/kg, −20 min). […] Interscapular surface temperature under saline (C) and CL-316,243 (D) conditions were quantified. n=6. † indicates interaction effect via 2-way ANOVA. * indicates significant difference from saline via bonferonni post-hoc test. In all graphs, bars represent mean and error bars represent S.E.M;
(§1) To investigate effects in vivo, 5-HT (5 mg/kg i.p.) was acutely administered to mice with or without a peripherally-restricted 5-HT2A antagonist (xylamidine tosylate) (3 mg/kg i.p.) to assess BAT function. Chow fed female FVBNJ mice (Jackson laboratories) were fasted for 6 hours. Each mouse was intraperitoneal injected with Vehicle (0.9% NaCl) or Xylamidine (3 mg/kg in 0.9% NaCl) at −100 minutes, followed by Vehicle or 5-HT (5 mg/kg in 0.9% NaCl) at −40 minutes, and finally Glucose ([…]) at 0 minutes. Blood glucose was monitored at the indicated times (FIG. 22). Chow mice were administered xylamidine tosylate (3 mg/kg daily) via intraperitoneal injection for ˜5 weeks. Mice were then moved to anaesthetized and injected with either saline or CL-316,243. Oxygen consumption was recorded while at 30° C. Finally, xylamidine tosylate (3 mg/kg i.p. daily) was administered to mice on a HFD and indices of whole body metabolism, such as resting energy expenditure, glucose tolerance and NAFLD, were evaluated. The mRNA and protein expression of markers of beige adipose tissue (UCP1, PRDM16, NDUFB8, SDHB, MTCO1, UQCRC2 and ATP5A) were also evaluated.

mice on a HFD = assay: Chronic xylamidine tosylate in mice on a HFD; format: in vivo
Experimental: (B) graphically depicts the fat content of mice from (A). […] Bars/points represent mean and error bars indicate S.E.M;
as §1

Chow mice = assay: Repeated xylamidine tosylate in chow mice: BAT energy expenditure with saline or CL-316,243; format: in vivo
Experimental: as §1

[1] = tested on: Chow fed female FVBNJ mice; assay: Acute xylamidine, 5-HT and glucose injection: glucose tolerance; format: in vivo; conditions: acute administration 3 mg/kg i.p.; effect larger when pre-treated with 5-HT
Experimental: as §1

[2] = chronic administration, high fat diet

T1 sequence (P35363 whole entry): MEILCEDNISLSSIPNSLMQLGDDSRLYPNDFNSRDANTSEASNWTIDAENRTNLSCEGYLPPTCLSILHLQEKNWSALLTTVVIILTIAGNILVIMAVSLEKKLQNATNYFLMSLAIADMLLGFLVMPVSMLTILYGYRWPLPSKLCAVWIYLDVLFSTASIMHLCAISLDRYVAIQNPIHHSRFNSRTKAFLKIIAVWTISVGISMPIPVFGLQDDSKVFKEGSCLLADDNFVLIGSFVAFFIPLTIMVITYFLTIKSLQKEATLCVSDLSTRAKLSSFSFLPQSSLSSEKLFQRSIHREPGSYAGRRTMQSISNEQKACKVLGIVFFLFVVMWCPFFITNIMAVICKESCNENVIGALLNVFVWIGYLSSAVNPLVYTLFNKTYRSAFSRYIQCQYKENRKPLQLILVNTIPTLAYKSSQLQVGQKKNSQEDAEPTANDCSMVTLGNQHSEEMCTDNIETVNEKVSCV

NCCc1c[nH]c2ccc(O)cc12 [5-HT, 5-hydroxytryptamine]
isoproterenol-induced increases in lipolysis (5-HT receptor): blunts
Ca2+ levels (5-HT2A; brown adipocytes stained with Fluo-4, agonist treatment): increased
isoproterenol-stimulated cAMP (BAT cells): attenuated
phosphorylation of protein kinase A substrates (HSL S660) (BAT cells): attenuated
induction of the thermogenic gene program (BAT cells; Pgc1a, Pdk4, Ucp1): blunted
Ucp1 mRNA (UCP1; brown adipocytes): decreased
Ucp1 promoter activity (UCP1; brown adipocytes): decreased
UCP1 protein levels (UCP1; brown adipocytes, chronic treatment for NBOH-2C-CN): decreased
UCP1 protein content (UCP1; cultured brown adipocytes, only in the presence of paroxetine (SSRI), 8 days): decreased
brown adipose tissue associated oxygen consumption and inter-scapular surface area temperature (brown adipose tissue; BAT activated with CL-316,243, 5 mg/kg 5-HT): significantly attenuated
markers of brown adipose tissue activity (VO2, interscapular surface temperature) (brown adipose tissue; thermoneutral conditions, BAT inactive (saline), 5 mg/kg 5-HT): no effect

COc1cccc(OC(C)CNC(=N)Cc2cccc(C)c2)c1.Cc1ccc(S(=O)(=O)O)cc1 (stereo not shown) [xylamidine tosylate]
5-HT induced Ca2+ transients (5-HT2A; pre-treatment with antagonist): attenuated
oxygen consumption, heat production, and non-moving oxygen consumption (mice on a HFD; 3 mg/kg daily, high fat diet): increased
glucose tolerance (mice on a HFD; 3 mg/kg daily, high fat diet (45% of calories from fat)): improved
iWAT levels of UCP1 and mitochondrial proteins (mice on a HFD; [2]): increased
iWAT mRNA levels of Prdm16 (mice on a HFD; [2]): elevated
liver triglycerides levels (mice on a HFD; [2]): significantly reduced
weight gain and increases in fat mass (mice on a HFD; [2]): prevented
effects of 5-HT on BAT activity (brown adipose tissue; pre-treatment 3 mg/kg, CL-316,243 activated BAT): completely blocked
brown adipose tissue specific energy expenditure (Chow mice; chow mice, repeated administration 3 mg/kg daily ~5 weeks, CL-316,243): increased
energy expenditure when BAT is inactive (Chow mice; saline): no effect
glucose tolerance [1]: improved
